From US20230140216A1, “COMBINATION THERAPY FOR TREATING MPS1” (GAIN THERAPEUTICS SA, priority 2020, published 2023)

What was measured:
[1] = target: T1, Recombinant human α-L-iduronidase protein (Homo sapiens, UniProt P35475); experiment: Differential scanning fluorimetry (DSF) thermal stabilization; format: binding; conditions: ΔTm class;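 also: Classes count stabilization of α-L-iduronidase despite the GALC label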
T1 construct: purchased R&D
T1 sequence (P35475 28-653): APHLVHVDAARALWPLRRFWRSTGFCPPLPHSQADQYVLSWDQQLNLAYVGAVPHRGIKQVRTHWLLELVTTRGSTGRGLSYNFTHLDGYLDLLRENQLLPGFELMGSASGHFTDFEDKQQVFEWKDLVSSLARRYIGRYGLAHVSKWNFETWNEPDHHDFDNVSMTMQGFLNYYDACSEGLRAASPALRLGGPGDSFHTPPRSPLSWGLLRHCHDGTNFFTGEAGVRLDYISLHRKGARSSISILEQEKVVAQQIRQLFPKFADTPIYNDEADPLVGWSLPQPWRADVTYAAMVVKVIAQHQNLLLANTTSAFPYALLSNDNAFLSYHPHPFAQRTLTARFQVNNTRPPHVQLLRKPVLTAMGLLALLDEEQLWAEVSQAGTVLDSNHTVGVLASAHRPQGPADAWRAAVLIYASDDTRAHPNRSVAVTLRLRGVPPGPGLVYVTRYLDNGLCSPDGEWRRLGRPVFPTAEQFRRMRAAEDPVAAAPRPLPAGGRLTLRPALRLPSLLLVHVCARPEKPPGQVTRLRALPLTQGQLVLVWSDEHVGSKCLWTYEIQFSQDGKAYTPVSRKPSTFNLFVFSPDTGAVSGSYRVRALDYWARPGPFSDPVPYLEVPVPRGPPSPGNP
Procedure: The capacity of Compounds of the Disclosure to stabilize α-L-iduronidase was assessed by differential scanning fluorimetry technique. The thermal denaturation of purified human native enzyme was monitored in the presence of the extrinsic fluorescent probe SYPRO Orange (Sigma-Aldrich, St. Louis, MO). The tested compounds were dissolved in 100% DMSO and diluted into the protein buffer to achieve final concentrations of 1% DMSO.
Recombinant human α-L-iduronidase protein (purchased from R&D) 12.5 µL of 1.5 µM in 100 mM Hepes 20 mM MgCl2 pH 7 (protein final concentration 0.75 µM) with Sypro Orange 10X and 12.5 µl of the different compound solutions were dispensed into 96-well PCR-plates. The intensity of SYPRO Orange fluorescence after a systematic increase of temperature was monitored in the Roche LightCycler® 480 II device (Roche Diagnostics).
The capacity to stabilize α-L-iduronidase is denoted as follows: • ΔTm GALC > 1 is shown as A; • ΔTm GALC between 0.5 and 1 is shown as B; • ΔTm GALC between 0.1 and 0.5 is shown as C; and • ΔTm GALC less than 0.1 is shown as D.

[2] = target: T2, ALDURAZYME (laronidase, IDUA) (Homo sapiens, UniProt P35475); experiment: Denaturation prevention assay with ALDURAZYME; format: biochemical; conditions: 30 µM compound, pH 7, 37° C.
T2 construct: purchased ALDURAZYME®
T2 sequence (P35475 26-653 limits assumed): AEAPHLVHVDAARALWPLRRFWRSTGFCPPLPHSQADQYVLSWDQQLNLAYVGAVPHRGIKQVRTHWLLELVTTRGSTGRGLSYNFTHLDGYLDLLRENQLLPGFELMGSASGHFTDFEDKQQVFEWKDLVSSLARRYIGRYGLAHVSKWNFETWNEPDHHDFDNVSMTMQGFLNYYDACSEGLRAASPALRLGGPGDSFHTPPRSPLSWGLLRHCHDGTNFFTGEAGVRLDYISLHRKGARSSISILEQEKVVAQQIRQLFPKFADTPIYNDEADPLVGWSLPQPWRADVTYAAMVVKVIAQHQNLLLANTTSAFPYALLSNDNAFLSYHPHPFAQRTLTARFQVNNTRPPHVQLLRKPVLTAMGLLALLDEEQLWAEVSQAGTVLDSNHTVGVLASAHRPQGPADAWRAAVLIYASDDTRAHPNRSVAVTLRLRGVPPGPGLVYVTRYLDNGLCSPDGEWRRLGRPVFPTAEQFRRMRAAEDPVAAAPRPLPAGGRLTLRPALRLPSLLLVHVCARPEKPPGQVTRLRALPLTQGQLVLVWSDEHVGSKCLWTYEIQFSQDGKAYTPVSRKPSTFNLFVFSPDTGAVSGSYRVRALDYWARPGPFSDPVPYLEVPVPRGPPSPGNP
Procedure: Briefly, recombinant human α-L-iduronidase protein (obtained in the Institute of Biotechnology and Biomedicine in the UAB, Bellaterra, Spain) was combined at a final concentration of 1 µM with 5X of SYPRO Orange and 30 µM of the corresponding compound in a final reaction volume of 25 µL in 100 mM Hepes 20 mM MgCl2 pH 7 buffer. Reactions were incubated at 37° C. and SYPRO Orange fluorescence intensity was monitored at the indicated time points using Glomax® Discover Microplate Reader from Promega (Madison, WI, USA).
Compounds of Examples 8, 39, 40, 54, and 72 were also tested as described above, except that ALDURAZYME® was used instead of the recombinant human α-L-iduronidase protein (obtained in the Institute of Biotechnology and Biomedicine in the UAB, Bellaterra, Spain).

Compound | DSF Activity range ([1]; synthetized Examples 38-94) | also measured
CCN(CC(=O)Nc1c(Cl)cccc1Cl)Cc1nc2ccsc2c(=O)[nH]1 [Example 8, N-(2,6-dichlorophenyl)-2-(ethyl((4-oxo-3,4-dihydrothieno[3,2-d]pyrimidin-2-yl)methyl)amino)acetamide] |  | DSF Activity range ([1]; commercially available Examples 8-37): A (ΔTm GALC > 1 is shown as A); prevention of IDUA denaturation [2]: prevent IDUA denaturation
CN(C(=O)CN(Cc1nc2cc(F)ccc2c(=O)[nH]1)C1CC1)c1ccccc1Cl [Example 65] | D (ΔTm GALC less than 0.1 is shown as D) | 
Cc1ccc2nc(CN(C)CC(=O)N(C)c3ccccc3Cl)[nH]c(=O)c2c1 [Example 66] | B (ΔTm GALC between 0.5 and 1 is shown as B) | 
CCN(CC(=O)N(C)c1nc(C)cs1)Cc1nc2ccc(F)cc2c(=O)[nH]1 [Example 67, 2-(ethyl((6-fluoro-4-oxo-3,4-dihydroquinazolin-2-yl)methyl)amino)-N-methyl-N-(4-methylthiazol-2-yl)acetamide] | B (ΔTm GALC between 0.5 and 1 is shown as B) | 
Cc1csc(N(C)C(=O)CN(C)Cc2nc3cc(F)ccc3c(=O)[nH]2)n1 [Example 68] | C (ΔTm GALC between 0.1 and 0.5 is shown as C) | 
CCN(CC(=O)N(C)c1c(Cl)cccc1Cl)Cc1nc2ccc(F)cc2c(=O)[nH]1 [Example 69, 2-(N-ethyl-N-((6-fluoro-3,4-dihydro-4-oxoquinazolin-2-yl)methyl)amino)-N-(2,6-dichlorophenyl)-N-methylacetamide] | C (ΔTm GALC between 0.1 and 0.5 is shown as C) | 
Cc1ccc2c(=O)[nH]c(CN(C)CC(=O)N(C)c3ccccc3Cl)nc2c1 [Example 70, 2-(N-((3,4-dihydro-7-methyl-4-oxoquinazolin-2-yl)methyl)-N-methylamino)-N-(2-chlorophenyl)-N-methylacetamide] | B (ΔTm GALC between 0.5 and 1 is shown as B) | 
CN(CC(=O)N1Cc2ccccc2C1)Cc1nc2cc(F)ccc2c(=O)[nH]1 [Example 71, 7-fluoro-2-(((2-(isoindolin-2-yl)-2-oxoethyl)(methyl)amino)methyl)quinazolin-4(3H)-one] | A (ΔTm GALC > 1 is shown as A) | 
CCN(CC(=O)N(C)c1c(Cl)cccc1Cl)Cc1nc2cc(F)ccc2c(=O)[nH]1 [Example 73, 2-(N-ethyl-N-((7-fluoro-3,4-dihydro-4-oxoquinazolin-2-yl)methyl)amino)-N-(2,6-dichlorophenyl)-N-methylacetamide] | C (ΔTm GALC between 0.1 and 0.5 is shown as C) | 
CN(CC(=O)N(C)c1cccc(F)c1)Cc1nc2ccc(F)cc2c(=O)[nH]1 [Example 74] | B (ΔTm GALC between 0.5 and 1 is shown as B) | 
CN(CC(=O)N(C)c1ccc(Cl)c(Cl)c1)Cc1nc2cc(F)ccc2c(=O)[nH]1 [Example 75] | B (ΔTm GALC between 0.5 and 1 is shown as B) | 
CCCN(CC(=O)N(C)c1ccccc1Cl)Cc1nc2cc(F)ccc2c(=O)[nH]1 [Example 76] | D (ΔTm GALC less than 0.1 is shown as D) | 
CN(CC(=O)N(C)c1cccc(F)c1)Cc1nc2cc(F)ccc2c(=O)[nH]1 [Example 77] | C (ΔTm GALC between 0.1 and 0.5 is shown as C) | 
Cc1ccc2nc(CN(CC(=O)N(C)c3ccccc3Cl)C3CC3)[nH]c(=O)c2c1 [Example 78, 2-(N-cyclopropyl-N-((3,4-dihydro-6-methyl-4-oxoquinazolin-2-yl)methyl)amino)-N-(2-chlorophenyl)-N-methylacetamide] | D (ΔTm GALC less than 0.1 is shown as D) | 
CCN(CC(=O)N(C)c1ccccc1Cl)Cc1nc2ccc(C)cc2c(=O)[nH]1 [Example 79] | C (ΔTm GALC between 0.1 and 0.5 is shown as C) | 
CCCN(CC(=O)N(C)c1ccccc1Cl)Cc1nc2ccc(C)cc2c(=O)[nH]1 [Example 80] | B (ΔTm GALC between 0.5 and 1 is shown as B) | 
Cc1ccc2nc(CN(C)CC(=O)N3CCc4ccccc43)[nH]c(=O)c2c1 [Example 81] | C (ΔTm GALC between 0.1 and 0.5 is shown as C) | 
Cc1ccc2nc(CN(C)CC(=O)N(C)c3cccc(F)c3)[nH]c(=O)c2c1 [Example 82] | B (ΔTm GALC between 0.5 and 1 is shown as B) | 
Cc1ccc2c(=O)[nH]c(CN(CC(=O)N(C)c3ccccc3Cl)C3CC3)nc2c1 [Example 83] | D (ΔTm GALC less than 0.1 is shown as D) | 
CCN(CC(=O)N(C)c1ccccc1Cl)Cc1nc2cc(C)ccc2c(=O)[nH]1 [Example 84] | C (ΔTm GALC between 0.1 and 0.5 is shown as C) | 
CCCN(CC(=O)N(C)c1ccccc1Cl)Cc1nc2cc(C)ccc2c(=O)[nH]1 [Example 85] | B (ΔTm GALC between 0.5 and 1 is shown as B) | 
Cc1ccc2c(=O)[nH]c(CN(C)CC(=O)N3CCc4ccccc43)nc2c1 [Example 86] | D (ΔTm GALC less than 0.1 is shown as D) | 
Cc1ccc2c(=O)[nH]c(CN(C)CC(=O)N(C)c3cccc(F)c3)nc2c1 [Example 87, 2-(N-((3,4-dihydro-7-methyl-4-oxoquinazolin-2-yl)methyl)-N-methylamino)-N-(3-fluorophenyl)-N-methylacetamide] | D (ΔTm GALC less than 0.1 is shown as D) | 
Cc1ccc2c(=O)[nH]c(CN(C)CC(=O)N(C)c3ccc(Cl)c(Cl)c3)nc2c1 [Example 88, 2-(N-((3,4-dihydro-7-methyl-4-oxoquinazolin-2-yl)methyl)-N-methylamino)-N-(3,4-dichlorophenyl)-N-methylacetamide] | B (ΔTm GALC between 0.5 and 1 is shown as B) | 
Cc1ccc2nc(CN(C)CC(=O)N(C)c3ccc(Cl)c(Cl)c3)[nH]c(=O)c2c1 [Example 89, 2-(N-((3,4-dihydro-6-methyl-4-oxoquinazolin-2-yl)methyl)-N-methylamino)-N-(3,4-dichlorophenyl)-N-methylacetamide] | B (ΔTm GALC between 0.5 and 1 is shown as B) | 
CN(CC(=O)N1Cc2ccccc2C1)Cc1nc2c(cnn2C)c(=O)[nH]1 [Example 90] | C (ΔTm GALC between 0.1 and 0.5 is shown as C) | 
CN(CC(=O)N1CCc2ccccc21)Cc1nc2c(cnn2C)c(=O)[nH]1 [Example 91] | B (ΔTm GALC between 0.5 and 1 is shown as B) | 
CN(CC(=O)N(C)c1ccccc1Cl)Cc1nc2c(cnn2C)c(=O)[nH]1 [Example 92] | B (ΔTm GALC between 0.5 and 1 is shown as B) | 
CCN(CC(=O)N(C)c1c(Cl)cccc1Cl)Cc1nc2c(cnn2C)c(=O)[nH]1 [Example 93, 2-(N-ethyl-N-((4,5-dihydro-l-methyl-4-oxo-1H-pyrazolo[3,4-d]pylimidin-6-yl)methyl)amino)-N-(2,6-dichlorophenyl)-N-methylacetamide] | C (ΔTm GALC between 0.1 and 0.5 is shown as C) | 
CN(CC(=O)N(C)c1cccc(F)c1)Cc1nc2c(cnn2C)c(=O)[nH]1 [Example 94] | B (ΔTm GALC between 0.5 and 1 is shown as B) | 
